Tested on: MCF7 complex spheroid growth, % test/control
Test: Anticancer human tumor MCF7 cell line growth inhibition [Asc];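 also: spheroids exposed to compounds for 7 days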;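 as to viability, T/C: 100% = DMSO vehicle control wells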
Settings: for IC50: curve of first compound; for viability, T/C: stronger effect = lower value; active = viability on the fitted dose curve at most 10% of control; inactive = the rest
Method in brief: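 Complex spheroids combining tumor cells with HUVEC endothelial cells and human MSCs, at 37 degrees C, 5% CO2; agents tested alone or combined, half-log dilutions from at or near clinical Cmax, or 10 microM if Cmax unknown.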

[1] = second compound 0.00949 µM, first compound 0.0316 µM
[2] = second compound 0.00949 µM, first compound 0.1 µM
[3] = second compound 0.00949 µM, first compound 0.316 µM
[4] = second compound 0.00949 µM, first compound 1 µM
[5] = second compound 0.03 µM, first compound 0.0316 µM
[6] = second compound 0.03 µM, first compound 0.1 µM
[7] = second compound 0.03 µM, first compound 0.316 µM
[8] = second compound 0.03 µM, first compound 1 µM
[9] = second compound 0.0949 µM, first compound 0.0316 µM
[10] = second compound 0.0949 µM, first compound 0.1 µM
[11] = second compound 0.0949 µM, first compound 0.316 µM
[12] = second compound 0.0949 µM, first compound 1 µM
[13] = second compound 0.3 µM, first compound 0.0316 µM
[14] = second compound 0.3 µM, first compound 0.1 µM
[15] = second compound 0.3 µM, first compound 0.316 µM
[16] = second compound 0.3 µM, first compound 1 µM
[17] = second compound 0.949 µM, first compound 0.0316 µM
[18] = second compound 0.949 µM, first compound 0.1 µM
[19] = second compound 0.949 µM, first compound 0.316 µM
[20] = second compound 0.949 µM, first compound 1 µM
[21] = second compound 3 µM, first compound 0.0316 µM
[22] = second compound 3 µM, first compound 0.1 µM
[23] = second compound 3 µM, first compound 0.316 µM
[24] = second compound 3 µM, first compound 1 µM
[25] = second compound 0.00949 µM, first compound 0.00316 µM
[26] = second compound 0.00949 µM, first compound 0.01 µM
[27] = second compound 0.03 µM, first compound 0.00316 µM
[28] = second compound 0.03 µM, first compound 0.01 µM
[29] = second compound 0.0949 µM, first compound 0.00316 µM
[30] = second compound 0.0949 µM, first compound 0.01 µM
[31] = second compound 0.3 µM, first compound 0.00316 µM
[32] = second compound 0.3 µM, first compound 0.01 µM
[33] = second compound 0.949 µM, first compound 0.00316 µM
[34] = second compound 0.949 µM, first compound 0.01 µM
[35] = second compound 3 µM, first compound 0.00316 µM
[36] = second compound 3 µM, first compound 0.01 µM

C=CC(=O)N1CCN(c2nc(=O)n(-c3c(C)ccnc3C(C)C)c3nc(-c4c(O)cccc4F)c(F)cc23)C(C)C1 (stereo unspecified) + CCN1C(C(=O)NC23CCC(C(=O)O)(CC2)CC3)C(c2cccc(Cl)c2F)C2(C(=O)Nc3cc(Cl)ccc32)C12CCCCC2
0.585 µM: IC50 (second compound 0.0949 µM)
> 10 µM: IC50 (second compound 0.00949 µM) | IC50 (second compound 0.03 µM)
< 0.0316 µM: IC50 (second compound 0.3 µM) | IC50 (second compound 0.949 µM) | IC50 (second compound 3 µM)
inactive: viability, T/C [1] 109% | viability, T/C [2] 104% | viability, T/C [3] 113% | viability, T/C [4] 107% | viability, T/C (second compound 0.00949 µM, first compound 3.16 µM) 113% | viability, T/C (second compound 0.00949 µM, first compound 10 µM) 91.1% | viability, T/C [5] 96.1% | viability, T/C [6] 93.7% | viability, T/C [7] 83.3% | viability, T/C [8] 68.2% | viability, T/C (second compound 0.03 µM, first compound 3.16 µM) 82.9% | viability, T/C (second compound 0.03 µM, first compound 10 µM) 59.8% | viability, T/C [9] 53.9% | viability, T/C [10] 56.4% | viability, T/C [11] 55.3% | viability, T/C [12] 42.5% | viability, T/C (second compound 0.0949 µM, first compound 3.16 µM) 45.7% | viability, T/C (second compound 0.0949 µM, first compound 10 µM) 35.5% | viability, T/C [13] 34.8% | viability, T/C [14] 33.5% | viability, T/C [15] 35.6% | viability, T/C [16] 33% | viability, T/C (second compound 0.3 µM, first compound 3.16 µM) 32% | viability, T/C (second compound 0.3 µM, first compound 10 µM) 32.6% | viability, T/C [17] 24.5% | viability, T/C [18] 23.1% | viability, T/C [19] 20.7% | viability, T/C [20] 25.2% | viability, T/C (second compound 0.949 µM, first compound 3.16 µM) 32.1% | viability, T/C (second compound 0.949 µM, first compound 10 µM) 21.4% | viability, T/C [21] 16.6% | viability, T/C [22] 17.1% | viability, T/C [23] 19.1% | viability, T/C [24] 18.3% | viability, T/C (second compound 3 µM, first compound 3.16 µM) 22.1% | viability, T/C (second compound 3 µM, first compound 10 µM) 24.2%

COc1c(OCCCN2CCOCC2)ccc2c3n(c(=NC(=O)c4cnc(N)nc4)nc12)CCN3 + CCN1C(C(=O)NC23CCC(C(=O)O)(CC2)CC3)C(c2cccc(Cl)c2F)C2(C(=O)Nc3cc(Cl)ccc32)C12CCCCC2
0.0424 µM: IC50 (second compound 0.03 µM)
active: viability, T/C [4] 9.39% | viability, T/C [8] 9% | viability, T/C [11] 8.59% | viability, T/C [12] 8.82% | viability, T/C [14] 4.54% | viability, T/C [15] 7.49% | viability, T/C [16] 8.96% | viability, T/C [34] 10.1% | viability, T/C [17] 4.6% | viability, T/C [18] 6.32% | viability, T/C [19] 8.83% | viability, T/C [20] 8.95% | viability, T/C [35] 9.35% | viability, T/C [36] 5.25% | viability, T/C [21] 6.94% | viability, T/C [22] 6.59% | viability, T/C [23] 9.64% | viability, T/C [24] 10%
0.0484 µM: IC50 (second compound 0.00949 µM)
< 0.00316 µM: IC50 (second compound 0.0949 µM) | IC50 (second compound 0.3 µM) | IC50 (second compound 0.949 µM) | IC50 (second compound 3 µM)
inactive: viability, T/C [25] 98.8% | viability, T/C [26] 70% | viability, T/C [1] 54.6% | viability, T/C [2] 49% | viability, T/C [3] 14.4% | viability, T/C [27] 78.7% | viability, T/C [28] 77.8% | viability, T/C [5] 56.1% | viability, T/C [6] 29% | viability, T/C [7] 7.5% | viability, T/C [29] 47.8% | viability, T/C [30] 50.3% | viability, T/C [9] 36.6% | viability, T/C [10] 18.4% | viability, T/C [31] 26.4% | viability, T/C [32] 21.5% | viability, T/C [13] 12.6% | viability, T/C [33] 17.9%

NC1CCC(NC2CC2c2ccccc2)CC1 (stereo unspecified) + CCN1C(C(=O)NC23CCC(C(=O)O)(CC2)CC3)C(c2cccc(Cl)c2F)C2(C(=O)Nc3cc(Cl)ccc32)C12CCCCC2
> 0.1 µM: IC50 (second compound 0.00949 µM) | IC50 (second compound 0.03 µM) | IC50 (second compound 0.0949 µM)
inactive: viability, T/C (second compound 0.00949 µM, first compound 0.000316 µM) 131% | viability, T/C (second compound 0.00949 µM, first compound 0.001 µM) 116% | viability, T/C [25] 131% | viability, T/C [26] 154% | viability, T/C [1] 126% | viability, T/C [2] 127% | viability, T/C (second compound 0.03 µM, first compound 0.000316 µM) 108% | viability, T/C (second compound 0.03 µM, first compound 0.001 µM) 113% | viability, T/C [27] 123% | viability, T/C [28] 101% | viability, T/C [5] 107% | viability, T/C [6] 74.8% | viability, T/C (second compound 0.0949 µM, first compound 0.000316 µM) 65.9% | viability, T/C (second compound 0.0949 µM, first compound 0.001 µM) 57.9% | viability, T/C [29] 43.3% | viability, T/C [30] 51.7% | viability, T/C [9] 58.1% | viability, T/C [10] 56.8% | viability, T/C (second compound 0.3 µM, first compound 0.000316 µM) 39.4% | viability, T/C (second compound 0.3 µM, first compound 0.001 µM) 38.8% | viability, T/C [31] 43.8% | viability, T/C [32] 40% | viability, T/C [13] 34.1% | viability, T/C [14] 43% | viability, T/C (second compound 0.949 µM, first compound 0.000316 µM) 30.3% | viability, T/C (second compound 0.949 µM, first compound 0.001 µM) 26.9% | viability, T/C [33] 29.1% | viability, T/C [34] 25.7% | viability, T/C [17] 29.1% | viability, T/C [18] 23.8% | viability, T/C (second compound 3 µM, first compound 0.000316 µM) 18.3% | viability, T/C (second compound 3 µM, first compound 0.001 µM) 18.6% | viability, T/C [35] 19.9% | viability, T/C [36] 15.5% | viability, T/C [21] 16.5% | viability, T/C [22] 19.6%
< 0.000316 µM: IC50 (second compound 0.3 µM) | IC50 (second compound 0.949 µM) | IC50 (second compound 3 µM)
